In patent US6809214B2, “Shortened synthesis of 3,3-diarylpropylamine derivatives” (Schwartz Pharma AG, priority 2000, dated 2004) one finds melting point and solubility data, which are given here for 8 molecules.

Structures are written as SMILES. Converted amounts (≈) assume the structure as drawn. Where a name gives a salt, the structure may show the parent alone. Where only a bound is given, the exact number is not on record here.

Data set [1] can be described thus: Solubilities at ambient temperature. It is filed as physicochemical.

As for `O=C1C[C@H](c2ccccc2)c2cc(C(=O)O)ccc2O1` [Example 3, (R)-4-Phenyl-2-chromanone-6-carboxylic acid], the melting point (as a rule, the temperature of the solid-liquid transition) was determined as 224.9 °C.

The molecule `CC(C)OC(=O)c1ccc2c(c1)C(c1ccccc1)CC(=O)O2` (racemic) [Example 5c] registered a melting point of 85.9 °C.

Take `COC(=O)c1ccc2c(c1)C(c1ccccc1)CC(=O)O2` (racemic) [Example 5a]: the melting point is 97 to 99 °C. For `CC(C)N(CC[C@H](c1ccccc1)c1cc(CO)ccc1O)C(C)C` [Example 13, (R)-2-(3-diisopropylamino-1-phenylpropyl)-4-hydroxymethylphenol], the solubility (commonly the dissolved amount per volume that the medium holds) in data set [1] (in water) was roughly 10000 µg/mL (≈ 29.3 mM); in data set [1] (organic solvent or mixture, in 2-butanone), less than 200 µg/mL; in data set [1] (organic solvent or mixture, in dichloromethane) it was less than 200 µg/mL; in data set [1] (organic solvent or mixture, in ethyl acetate) it was less than 200 µg/mL; in data set [1] (organic solvent or mixture, in methanol) it was greater than 50000 µg/mL. Molecule `CC(C)N(CC[C@H](c1ccccc1)c1cc(C(=O)O)ccc1O)C(C)C` [Example 9, (R)-(−)-3-(Diisopropylamino-1-phenylpropyl)-4-hydroxybenzoic acid] displayed a melting point of 102.3 °C. Same read-out and setting: next, `O=C1C[C@H](c2ccccc2)c2cc(C(=O)O)ccc2O1` (as salt: salt) [Example 3, (R)-4-Phenyl-2-chromanone-6-carboxylic acid]: 197.5 °C; `COC(=O)c1ccc(O)c([C@H](CCN(C(C)C)C(C)C)c2ccccc2)c1` [Example 8b, (R)-(−)-3-(3-Diisopropylamino-1-phenylpropyl)-4-hydroxybenzoic acid methyl ester]: 143.7 °C.

For `O=C1CC(c2ccccc2)c2cc(C(=O)O)ccc2O1` (racemic) [Example 1, (R,S)-4-Phenyl-2-chromanone-6-carboxylic acid], the melting point was 246 °C.
